Reference: ChEMBL document CHEMBL1212934, “Isolation of pandamarilactonine-H from the roots of Pandanus amaryllifolius and synthesis of epi-pandamarilactonine-H” (J Nat Prod, 2010)

Tests used:
Assay type in all cases: functional, cell-based
HT-29 = test: Cytotoxicity against human HT-29 cells
A549 = test: Cytotoxicity against human A549 cells
HCT-116 = test: Cytotoxicity against human HCT116 cells

Measured: IC50

COC(=O)C[C@@H]1CCCN1CCC/C=C1\C=C(C)C(=O)O1
> 5 µg/mL: all assays above

COC(=O)C[C@H]1CCCN1CCC/C=C1\C=C(C)C(=O)O1
> 5 µg/mL: all assays above

COC(=O)C[C@H]1CCCN1CCC/C=C1/C=C(C)C(=O)O1
> 5 µg/mL: all assays above

CC1=C[C@H]([C@H]2CCCN2CCCC[C@@H]2C[C@@H](C)C(=O)O2)OC1=O
> 5 µg/mL: all assays above
